In experiment [1] the test system is Mus musculus. Briefly: Antiobesity activity in high fat diet-induced obese C57BL/6J Jms Slc mouse model assessed as change in body weight administered through diet for 28 days (reference value: 33.4+/-2.8). The experiment is classed as functional.
Experiment [2] deals with Mus musculus. As to the kind of experiment: Antiobesity activity in high fat diet-induced obese C57BL/6J Jms Slc mouse model assessed as blood total cholesterol level administered through diet for 28 days (reference value: 141+/-10). The experiment is classed as functional.
Experiment [3] concerns Mus musculus. As to the kind of experiment: Antiobesity activity in high fat diet-induced obese C57BL/6J Jms Slc mouse model assessed as epididymal adipose tissue weight administered through diet for 28 days (reference value: 1.8+/-0.49). The experiment is classed as functional.
For experiment [4], the system named is Mus musculus. As to the kind of experiment: Antiobesity activity in high fat diet-induced obese C57BL/6J Jms Slc mouse model assessed as blood triglyceride level administered through diet for 28 days (reference value: 63+/-32). It is filed as functional.
Experiment [5] concerns Mus musculus. Briefly: Antiobesity activity in high fat diet-induced obese C57BL/6J Jms Slc mouse model assessed as blood nonesterified free fatty acid level administered through diet for 28 days (reference value: 0.35+/-0.09). The experiment is classed as functional.
In experiment [6] the test system is 3T3-L1. Briefly: Inhibition of IkappaB-alpha degradation in LPS-stimulated mouse 3T3L1 cells at 50 uM pretreated 30 mins before LPS containing cytokine mixture challenge measured after 60 mins by Western blotting. The experiment is classed as functional, cell-based.
Experiment [7] has as its system Mus musculus. Briefly: Antiobesity activity in high fat diet-induced obese C57BL/6J Jms Slc mouse model assessed as retroperitoneal adipose tissue weight administered through diet for 28 days (reference value: 0.51+/-0.11). It is filed as functional.
Experiment [8] relates to 3T3-L1. As to the kind of experiment: Inhibition of IkappaB-alpha degradation in LPS-stimulated mouse 3T3L1 cells at 50 uM pretreated 30 mins before LPS containing cytokine mixture challenge measured after 30 mins by Western blotting. It is filed as functional, cell-based. For orientation: Immunoblotting shows a protein as a band on a membrane.
The species entered for experiment [9] is Mus musculus. As to the kind of experiment: Inhibition of IkappaB-alpha degradation in LPS-stimulated mouse […] cells at 50 uM pretreated 30 mins before LPS containing cytokine mixture challenge measured by Western blotting. It is filed as functional.
Experiment [10] concerns the target T1, Inhibitor of nuclear factor kappa-B kinase subunit beta (Homo sapiens, UniProt O14920).
T1 sequence (O14920 whole entry): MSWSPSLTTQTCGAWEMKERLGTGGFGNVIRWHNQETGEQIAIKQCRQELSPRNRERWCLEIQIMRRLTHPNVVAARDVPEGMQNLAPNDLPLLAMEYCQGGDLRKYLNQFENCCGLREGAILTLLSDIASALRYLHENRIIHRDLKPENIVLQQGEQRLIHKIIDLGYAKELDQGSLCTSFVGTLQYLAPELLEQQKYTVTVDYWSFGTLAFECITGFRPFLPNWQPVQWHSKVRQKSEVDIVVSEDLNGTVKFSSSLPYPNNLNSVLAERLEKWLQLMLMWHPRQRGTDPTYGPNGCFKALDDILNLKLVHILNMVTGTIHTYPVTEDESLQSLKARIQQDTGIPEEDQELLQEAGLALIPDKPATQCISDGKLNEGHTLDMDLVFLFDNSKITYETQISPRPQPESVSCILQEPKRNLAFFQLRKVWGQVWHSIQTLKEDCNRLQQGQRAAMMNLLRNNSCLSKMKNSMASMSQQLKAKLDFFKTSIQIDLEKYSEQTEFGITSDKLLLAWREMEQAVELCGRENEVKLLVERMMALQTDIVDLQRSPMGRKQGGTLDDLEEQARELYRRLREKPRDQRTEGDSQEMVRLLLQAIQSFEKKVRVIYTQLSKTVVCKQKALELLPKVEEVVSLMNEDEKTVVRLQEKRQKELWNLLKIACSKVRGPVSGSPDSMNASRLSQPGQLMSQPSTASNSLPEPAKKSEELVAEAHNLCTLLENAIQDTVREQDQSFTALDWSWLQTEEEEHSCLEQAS
As to the kind of experiment: Inhibition of IKK-beta by tome resolved fluorescence assay.

Calls of active or inactive are those of the source. The rule behind the calls is not given here.

Turning to `O=C(O)c1cc(-c2ccccc2)cc(Cc2cc(-c3ccccc3)cc(C(=O)O)c2O)c1O`, the Activity in the experiment with Mus musculus [1] was found to be 28.9 g; in the experiment on Mus musculus [2] it was 133 mg/dL; in the experiment on Mus musculus [3], 0.83 g; in the experiment with Mus musculus [4] it was 48 mg/dL; in the experiment on Mus musculus [5] it was 0.14 mEq/L; in the experiment on Mus musculus [7] it was 0.26 g. Also, the inhibition entry in the experiment with 3T3-L1 [6], in the experiment on 3T3-L1 [8] and in the experiment listed under Mus musculus [9] was “Active” in each case.
`O=C(Nc1cc(Cl)cc2c1[nH]c1cnccc12)c1cccnc1`: in experiment [10], inhibition was half-maximal at 150 nM (IC50).
With `O=C(O)c1cc(Cc2cc(C(=O)O)c(O)c(-c3ccccc3)c2)cc(-c2ccccc2)c1O`, the Activity in the experiment on Mus musculus [1] was 29.2 g; in the experiment with Mus musculus [2], 129 mg/dL; in the experiment on Mus musculus [3], 0.86 g; in the experiment with Mus musculus [4], 42 mg/dL; in the experiment with Mus musculus [5] it was 0.24 mEq/L; in the experiment on Mus musculus [7] it was 0.26 g. Besides, the inhibition result in the experiment with 3T3-L1 [6], with 3T3-L1 [8] and in the experiment filed under Mus musculus [9] was “Active” throughout.

These data come from ChEMBL document CHEMBL1159073, “Inhibition of IKK-beta: a new development in the mechanism of the anti-obesity effects of PTP1B inhibitors SA18 and SA32” (Bioorg Med Chem Lett, 2010).
